These results are taken from patent US9365522B2, “Pyrazole amide derivative” (AMGEN INC., priority 2015, dated 2016).

The structures appear in SMILES notation.

For this test, the target named is T1, human RORγ-LBD (Homo sapiens, UniProt P51449).
T1 construct: made in house; host or cells: E. coli (BL-21)
T1 sequence (P51449 262-518): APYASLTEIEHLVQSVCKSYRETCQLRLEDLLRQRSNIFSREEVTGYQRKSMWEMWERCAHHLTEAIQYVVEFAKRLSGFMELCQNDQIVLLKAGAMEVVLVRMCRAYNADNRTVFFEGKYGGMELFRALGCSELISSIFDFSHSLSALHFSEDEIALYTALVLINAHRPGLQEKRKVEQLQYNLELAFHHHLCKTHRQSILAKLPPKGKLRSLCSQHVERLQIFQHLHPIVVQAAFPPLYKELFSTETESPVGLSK
In words: ROR gamma coactivator peptide recruitment Alphascreen assay (RORγ-LBD binding to GRIP1 coactivator peptide). Format: biochemical. The settings on record: 5 nM human RORγ-LBD, 30 nM 7-β-hydroxycholesterol, 50 nM biotinylated GRIP1 coactivator peptide, overnight incubation at room temperature; read-out: result (pIC50, RORγ coactivator peptide recruitment Alphascreen assay) (converted). The method in brief: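 Alphascreen proximity read-out after overnight room-temperature incubation, yielding pIC50 from 1-in-2 compound series (2.5% DMSO final). Mixture: 50 nM biotin-GRIP1 peptide, 30 nM 7-β-hydroxycholesterol agonist, 5 nM recombinant 6×His:Flag human RORγ-LBD (aa 262-518), 50 mM HEPES pH 7.4.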
On to `Cc1cc(Cl)c(C(=O)CN(CC2(C)CCC2)C(=O)c2cnn([C@H]3CC[C@H](CC(=O)O)CC3)c2C(F)(F)F)c(Cl)c1` [Example 890, (trans-4-(4-((2-(2,6-dichloro-4-methylphenyl)-2-oxoethyl)((1-methylcyclobutyl)methyl)carbamoyl)-5-(trifluoromethyl)-1H-pyrazol-1-yl)cyclohexyl)acetic acid], for which the IC50 was 0.708 nM.
With `COc1cc(Cl)c(C(=O)CN(CC2CCC3(CCC3)CC2)C(=O)c2cnn([C@H]3CC[C@@](C)(C(=O)O)CC3)c2C(F)(F)F)c(Cl)c1` [Example 891, trans-4-(4-((2-(2,6-dichloro-4-methoxyphenyl)-2-oxoethyl)(spiro[3.5]non-7-ylmethyl)carbamoyl)-5-(trifluoromethyl)-1 H-pyrazol-1-yl)-1 - methylcyclohexanecarboxylic acid], the IC50 is 15.5 nM.
Regarding `CC(C)(C)CN(CCc1c(Cl)cn2ncnc2c1Cl)C(=O)c1cnn([C@H]2CC[C@](C)(C(=O)O)CC2)c1C(F)(F)F` [Example 892, trans-4-(4-((2-(6,8-dichloro[1,2,4]triazolo[1,5-a]pyridin-7-yl)ethyl)(2,2-dimethylpropyl)carbamoyl)-5-(trifluoromethyl)-1H-pyrazol-1-yl)-1-methylcyclohexanecarboxylic acid], the IC50 is 302 nM.
As to `CC(C)(CN(CC(=O)c1c(Cl)cccc1Cl)C(=O)c1cnn([C@H]2CC[C@](C)(C(=O)O)CC2)c1C(F)(F)F)C(F)(F)F` [Example 893, trans-4-(4-((2-(2,6-dichlorophenyl)-2-oxoethyl)(3,3,3-trifluoro-2,2-dimethylpropyl)carbamoyl)-5-(trifluoromethyl)-1H-pyrazol-1-yl)-1-methylcyclohexanecarboxylic acid], the IC50 was 2.24 nM.
